Patent US20080009418A1, “Selective Inhibitors” (Alchemia LTD., priority 2004, published 2008)

What was measured:
Details in all cases: compound at 10 μM
Human δ-opioid (DOP) = molecular target: T1, Human δ-opioid (DOP) (Homo sapiens, UniProt P41143); assay: Radioligand binding, human δ-opioid (DOP) membranes, FlashPlate, [3H]-Bremazocine
T1 construct: purchased Perkin Elmer Biosignal
Summary of the method: (§1)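 Cloned human receptor membranes were coated onto FlashPlate wells and incubated with radioligand and compound (added from a 0.5 mM DMSO daughter plate) for 1 hour at room temperature in the dark. Scintillation counting gave percent inhibition, with DMSO defining total and reference ligand defining non-specific binding.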

Human κ-Opioid (KOP) = molecular target: T2, Human κ-Opioid (KOP) (Homo sapiens, UniProt P41145); assay: Radioligand binding, human κ-opioid (KOP) membranes, filtration, [3H]-Diprenorphine
T2 construct: purchased Perkin Elmer Biosignal
Summary of the method: (§2)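 Membranes from cloned human receptors were incubated with compound and radioligand for 1 hour at room temperature. Bound ligand was collected on 0.3% PEI-soaked filters, washed with cold 50 mM Tris-HCl pH 7.4, and counted by scintillation. Percent inhibition was computed against DMSO totals and reference-ligand nonspecific wells.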

Human Melanocortin (MC3) = molecular target: T3, Human Melanocortin (MC3) (Homo sapiens, UniProt P41968); assay: Radioligand binding, human melanocortin MC3 membranes, FlashPlate, [125I]-NDP-αMSH
T3 construct: purchased Perkin Elmer Biosignal
Summary of the method: as §1

Human Melanocortin (MC4) = molecular target: T4, Human Melanocortin (MC4) (Homo sapiens, UniProt P32245); assay: Radioligand binding, human melanocortin MC4 membranes, FlashPlate, [125I]-NDP-αMSH
T4 construct: purchased Perkin Elmer Biosignal
Summary of the method: as §1

Human melanocortin (MC5) = molecular target: T5, Human melanocortin (MC5) (Homo sapiens, UniProt P33032); assay: Radioligand binding, human melanocortin MC5 membranes, FlashPlate, [125I]-NDP-αMSH
T5 construct: purchased Perkin Elmer Biosignal
Summary of the method: as §1

[1] = molecular target: T6, Human melanin-concentrating hormone (MCH1) (Homo sapiens, UniProt Q99705); assay: Radioligand binding, human melanin-concentrating hormone MCH1 membranes, FlashPlate, [125I]-S36057
T6 construct: purchased Perkin Elmer Biosignal
Summary of the method: as §1

Human μ-opioid (MOP) = molecular target: T7, Human μ-opioid (MOP) (Homo sapiens, UniProt P35372); assay: Radioligand binding, human μ-opioid (MOP) membranes, FlashPlate, [3H]-Naloxone
T7 construct: purchased Perkin Elmer Biosignal
Summary of the method: as §1

Human neurokinin (NK1) = molecular target: T8, Human neurokinin (NK1) (Homo sapiens, UniProt P25103); assay: Radioligand binding, human neurokinin NK1 membranes, filtration, [125I]-Substance P
T8 construct: purchased Perkin Elmer Biosignal
Summary of the method: as §2

[2] = molecular target: T9, Human neuropeptide Y (NPY-Y1) (Homo sapiens, UniProt P25929); assay: Radioligand binding, human neuropeptide Y NPY-Y1 membranes, FlashPlate, [125I]-PYY
T9 construct: purchased Perkin Elmer Biosignal
T9 sequence (P25929 1-384): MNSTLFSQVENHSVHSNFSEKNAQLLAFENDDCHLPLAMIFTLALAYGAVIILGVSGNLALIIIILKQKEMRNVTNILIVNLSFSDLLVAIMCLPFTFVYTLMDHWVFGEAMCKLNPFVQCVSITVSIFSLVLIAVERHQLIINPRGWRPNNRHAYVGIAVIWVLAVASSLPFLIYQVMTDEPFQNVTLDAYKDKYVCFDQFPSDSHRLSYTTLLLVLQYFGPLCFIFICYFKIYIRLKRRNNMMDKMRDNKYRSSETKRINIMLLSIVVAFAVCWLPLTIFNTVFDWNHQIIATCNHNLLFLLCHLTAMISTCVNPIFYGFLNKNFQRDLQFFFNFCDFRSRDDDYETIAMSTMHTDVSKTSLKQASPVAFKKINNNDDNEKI
Summary of the method: as §1

Human opioid (ORL1) = molecular target: T10, Human opioid (ORL1) (Homo sapiens, UniProt P41146); assay: Radioligand binding, human opioid ORL1 membranes, FlashPlate, [125I]-Nociceptin
T10 construct: purchased Perkin Elmer Biosignal
Summary of the method: as §1

Mouse urotensin (mUR2) = molecular target: T11, Mouse urotensin (mUR2) (Mus musculus, UniProt Q8VIH9); assay: Radioligand binding, mouse urotensin mUR2 membranes, FlashPlate, [125I]-Urotensin II
T11 construct: purchased Perkin Elmer Biosignal
T11 sequence (Q8VIH9 1-385): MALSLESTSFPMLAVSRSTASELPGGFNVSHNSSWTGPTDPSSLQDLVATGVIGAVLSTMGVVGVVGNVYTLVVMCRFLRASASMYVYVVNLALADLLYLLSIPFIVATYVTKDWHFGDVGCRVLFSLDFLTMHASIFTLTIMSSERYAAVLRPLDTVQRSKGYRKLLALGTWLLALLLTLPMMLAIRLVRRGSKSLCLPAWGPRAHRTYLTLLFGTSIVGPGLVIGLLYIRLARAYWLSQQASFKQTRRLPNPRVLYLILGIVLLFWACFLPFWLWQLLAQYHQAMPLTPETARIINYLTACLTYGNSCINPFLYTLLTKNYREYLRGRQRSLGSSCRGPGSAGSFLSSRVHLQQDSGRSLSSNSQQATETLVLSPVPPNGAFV
Summary of the method: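 Cloned mouse urotensin (mUR2) receptor membranes from Perkin Elmer Biosignal were immobilized in FlashPlate microplates using a proprietary coating. Each well got 19.5 μl buffer, then 0.5 μl of DMSO, reference ligand, or compound. Adding 5 μl of [125I]-Urotensin II, diluted to 5× final concentration in binding buffer, started binding. Plates were sealed with TopSeal-A and incubated 1 hour at room temperature in the dark. Wells were counted for 30 seconds each on a TopCount after a 60-second delay, and percentage inhibition was calculated.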

T3 sequence (P41968 whole entry): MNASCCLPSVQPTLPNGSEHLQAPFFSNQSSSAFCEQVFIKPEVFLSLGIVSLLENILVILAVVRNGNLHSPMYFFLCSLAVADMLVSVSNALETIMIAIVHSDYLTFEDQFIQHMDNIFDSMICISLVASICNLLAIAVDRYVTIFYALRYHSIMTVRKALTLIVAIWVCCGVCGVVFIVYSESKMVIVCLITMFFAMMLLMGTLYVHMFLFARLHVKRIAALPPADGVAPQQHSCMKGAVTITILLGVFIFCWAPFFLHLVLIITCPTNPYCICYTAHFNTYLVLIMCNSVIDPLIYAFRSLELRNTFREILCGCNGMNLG
T7 sequence (P35372 whole entry): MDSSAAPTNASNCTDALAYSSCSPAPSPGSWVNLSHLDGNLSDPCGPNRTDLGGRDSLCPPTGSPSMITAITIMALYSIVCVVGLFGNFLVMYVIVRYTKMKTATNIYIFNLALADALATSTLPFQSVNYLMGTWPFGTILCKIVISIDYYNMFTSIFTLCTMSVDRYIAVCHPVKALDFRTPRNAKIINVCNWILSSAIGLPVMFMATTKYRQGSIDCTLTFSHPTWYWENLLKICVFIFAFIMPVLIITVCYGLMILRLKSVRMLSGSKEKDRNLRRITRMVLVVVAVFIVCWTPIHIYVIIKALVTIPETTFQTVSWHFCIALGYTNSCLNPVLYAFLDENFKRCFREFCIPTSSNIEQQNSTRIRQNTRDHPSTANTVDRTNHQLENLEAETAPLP
T10 sequence (P41146 whole entry): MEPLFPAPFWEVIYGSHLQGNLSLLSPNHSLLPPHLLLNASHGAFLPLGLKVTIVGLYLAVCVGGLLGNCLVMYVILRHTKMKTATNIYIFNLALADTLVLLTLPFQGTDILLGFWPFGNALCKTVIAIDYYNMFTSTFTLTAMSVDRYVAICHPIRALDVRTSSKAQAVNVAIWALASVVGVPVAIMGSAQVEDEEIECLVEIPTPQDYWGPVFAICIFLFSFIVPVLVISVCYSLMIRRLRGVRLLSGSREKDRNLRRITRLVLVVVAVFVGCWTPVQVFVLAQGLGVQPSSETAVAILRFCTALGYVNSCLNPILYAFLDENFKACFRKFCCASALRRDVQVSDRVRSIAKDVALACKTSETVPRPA
T8 sequence (P25103 whole entry): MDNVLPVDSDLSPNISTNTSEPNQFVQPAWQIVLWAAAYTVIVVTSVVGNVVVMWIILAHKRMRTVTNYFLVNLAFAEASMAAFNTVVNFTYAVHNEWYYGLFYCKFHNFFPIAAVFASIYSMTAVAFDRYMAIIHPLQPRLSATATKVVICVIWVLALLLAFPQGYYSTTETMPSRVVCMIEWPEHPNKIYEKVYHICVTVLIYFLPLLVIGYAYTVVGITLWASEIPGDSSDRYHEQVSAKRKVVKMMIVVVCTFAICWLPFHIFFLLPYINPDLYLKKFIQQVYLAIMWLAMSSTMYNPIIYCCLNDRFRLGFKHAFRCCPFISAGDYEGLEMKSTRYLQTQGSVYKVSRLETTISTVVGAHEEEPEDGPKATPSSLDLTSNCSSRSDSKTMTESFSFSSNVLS
T1 sequence (P41143 whole entry): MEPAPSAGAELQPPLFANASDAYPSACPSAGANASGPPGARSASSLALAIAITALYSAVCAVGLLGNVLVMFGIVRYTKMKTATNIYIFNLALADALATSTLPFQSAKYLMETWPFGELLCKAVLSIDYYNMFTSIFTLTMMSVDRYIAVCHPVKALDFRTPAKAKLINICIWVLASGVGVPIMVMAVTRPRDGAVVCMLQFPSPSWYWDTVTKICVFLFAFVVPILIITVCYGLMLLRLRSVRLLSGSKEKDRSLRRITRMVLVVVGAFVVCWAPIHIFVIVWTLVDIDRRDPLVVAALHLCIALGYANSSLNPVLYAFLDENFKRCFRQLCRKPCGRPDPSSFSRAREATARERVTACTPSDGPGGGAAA
T6 sequence (Q99705 whole entry): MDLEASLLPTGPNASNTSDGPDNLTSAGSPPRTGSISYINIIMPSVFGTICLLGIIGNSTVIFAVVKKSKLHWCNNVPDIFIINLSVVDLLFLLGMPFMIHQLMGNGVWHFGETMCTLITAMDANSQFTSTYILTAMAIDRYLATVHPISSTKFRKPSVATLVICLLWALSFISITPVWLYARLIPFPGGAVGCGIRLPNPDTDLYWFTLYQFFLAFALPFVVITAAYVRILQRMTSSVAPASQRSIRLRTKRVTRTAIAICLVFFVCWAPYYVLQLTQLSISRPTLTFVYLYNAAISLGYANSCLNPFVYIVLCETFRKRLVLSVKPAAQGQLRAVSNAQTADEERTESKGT
T4 sequence (P32245 whole entry): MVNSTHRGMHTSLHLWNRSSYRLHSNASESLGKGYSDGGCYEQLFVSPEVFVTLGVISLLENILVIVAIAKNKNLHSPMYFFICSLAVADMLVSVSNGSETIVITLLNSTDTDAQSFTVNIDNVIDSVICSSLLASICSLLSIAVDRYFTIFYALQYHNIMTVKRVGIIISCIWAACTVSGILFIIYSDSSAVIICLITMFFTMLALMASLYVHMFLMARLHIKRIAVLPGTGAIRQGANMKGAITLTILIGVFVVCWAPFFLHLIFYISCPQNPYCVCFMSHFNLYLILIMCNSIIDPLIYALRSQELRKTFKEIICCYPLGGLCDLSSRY
T5 sequence (P33032 whole entry): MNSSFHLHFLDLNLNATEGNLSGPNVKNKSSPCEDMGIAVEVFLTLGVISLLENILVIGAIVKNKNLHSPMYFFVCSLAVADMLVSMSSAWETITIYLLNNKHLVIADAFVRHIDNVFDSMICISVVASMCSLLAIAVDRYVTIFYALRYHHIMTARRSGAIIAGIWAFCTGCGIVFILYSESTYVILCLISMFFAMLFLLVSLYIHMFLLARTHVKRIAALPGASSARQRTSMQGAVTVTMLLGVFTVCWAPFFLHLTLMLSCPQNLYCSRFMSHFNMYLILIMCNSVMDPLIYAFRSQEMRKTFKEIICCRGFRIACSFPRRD
T2 sequence (P41145 whole entry): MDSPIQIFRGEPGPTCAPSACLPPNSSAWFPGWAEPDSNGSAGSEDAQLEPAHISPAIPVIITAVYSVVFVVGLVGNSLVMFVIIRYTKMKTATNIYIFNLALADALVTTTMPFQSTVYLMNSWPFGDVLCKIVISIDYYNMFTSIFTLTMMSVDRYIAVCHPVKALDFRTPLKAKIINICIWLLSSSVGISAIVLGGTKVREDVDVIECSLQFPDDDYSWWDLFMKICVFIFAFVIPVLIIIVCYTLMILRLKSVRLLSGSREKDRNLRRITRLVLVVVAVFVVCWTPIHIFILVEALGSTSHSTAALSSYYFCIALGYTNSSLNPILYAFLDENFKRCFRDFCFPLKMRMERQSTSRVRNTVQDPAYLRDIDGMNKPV

SMILES: NCCC(=O)NC1C(OCc2ccccc2)OC(COCc2ccc(Cl)cc2)C(O)C1OCc1ccc2ccccc2c1 (stereo not shown) [compound 368]
- A1: inhibition of radioligand binding, human δ-opioid (DOP) (Human δ-opioid (DOP); [3H]-Bremazocine): − (“−” indicates less than 50% inhibition at 10 μM)
- A2: inhibition of radioligand binding, human κ-opioid (KOP) (Human κ-Opioid (KOP); [3H]-Diprenorphine): − (“−” indicates less than 50% inhibition at 10 μM)
- A3: inhibition of radioligand binding, human melanocortin (MC3) (Human Melanocortin (MC3); [125I]-NDP-αMSH): + (“+” indicates greater than 50% inhibition at 10 μM)
- A4: inhibition of radioligand binding, human melanocortin (MC4) (Human Melanocortin (MC4); [125I]-NDP-αMSH): + (“+” indicates greater than 50% inhibition at 10 μM)
- A5: inhibition of radioligand binding, human melanocortin (MC5) (Human melanocortin (MC5); [125I]-NDP-αMSH): + (“+” indicates greater than 50% inhibition at 10 μM)
- A6: inhibition of radioligand binding, human melanin-concentrating hormone (MCH1) ([1]; [125I]-S36057): − (“−” indicates less than 50% inhibition at 10 μM)
- A7: inhibition of radioligand binding, human μ-opioid (MOP) (Human μ-opioid (MOP); [3H]-Naloxone): − (“−” indicates less than 50% inhibition at 10 μM)
- A8: inhibition of radioligand binding, human neurokinin (NK1) (Human neurokinin (NK1); [125I]-Substance P): + (“+” indicates greater than 50% inhibition at 10 μM)
- A9: inhibition of radioligand binding, human neuropeptide Y (NPY-Y1) ([2]; [125I]-PYY): − (“−” indicates less than 50% inhibition at 10 μM)
- A10: inhibition of radioligand binding, human opioid (ORL1) (Human opioid (ORL1); [125I]-Nociceptin): − (“−” indicates less than 50% inhibition at 10 μM)
- A11: inhibition of radioligand binding, mouse urotensin (mUR2) (Mouse urotensin (mUR2); [125I]-Urotensin II): − (“−” indicates less than 50% inhibition at 10 μM)

SMILES: COCC1OC(OCCc2ccccc2)C(NC(=O)CNC(=N)N)C(OCc2ccc3ccccc3c2)C1O (stereo not shown) [compound 226]
- A1: inhibition of radioligand binding (Human δ-opioid (DOP); [3H]-Bremazocine, FlashPlate): − (“−” indicates less than 50% inhibition at 10 μM)
- A2: inhibition of radioligand binding (Human κ-Opioid (KOP); [3H]-Diprenorphine, filtration): − (“−” indicates less than 50% inhibition at 10 μM)
- A3: inhibition of radioligand binding (Human Melanocortin (MC3); [125I]-NDP-αMSH, FlashPlate): + (“+” indicates greater than 50% inhibition at 10 μM)
- A4: inhibition of radioligand binding (Human Melanocortin (MC4); [125I]-NDP-αMSH, FlashPlate): + (“+” indicates greater than 50% inhibition at 10 μM)
- A5: inhibition of radioligand binding (Human melanocortin (MC5); [125I]-NDP-αMSH, FlashPlate): + (“+” indicates greater than 50% inhibition at 10 μM)
- A6: inhibition of radioligand binding ([1]; [125I]-S36057, FlashPlate): − (“−” indicates less than 50% inhibition at 10 μM)
- A7: inhibition of radioligand binding (Human μ-opioid (MOP); [3H]-Naloxone, FlashPlate): − (“−” indicates less than 50% inhibition at 10 μM)
- A8: inhibition of radioligand binding (Human neurokinin (NK1); [125I]-Substance P, filtration): + (“+” indicates greater than 50% inhibition at 10 μM)
- A9: inhibition of radioligand binding ([2]; [125I]-PYY, FlashPlate): − (“−” indicates less than 50% inhibition at 10 μM)
- A10: inhibition of radioligand binding (Human opioid (ORL1); [125I]-Nociceptin, FlashPlate): − (“−” indicates less than 50% inhibition at 10 μM)
- A11: inhibition of radioligand binding (Mouse urotensin (mUR2); [125I]-Urotensin II, FlashPlate): − (“−” indicates less than 50% inhibition at 10 μM)

SMILES: COCC1OC(OCc2ccccc2)C(NC(=O)CCNC(=N)N)C(OCc2ccc(-c3ccccc3)cc2)C1O (stereo not shown) [compound 185]
- A1 radioligand binding, percentage inhibition (Human δ-opioid (DOP); [3H]-Bremazocine): − (“−” indicates less than 50% inhibition at 10 μM)
- A2 radioligand binding, percentage inhibition (Human κ-Opioid (KOP); [3H]-Diprenorphine): − (“−” indicates less than 50% inhibition at 10 μM)
- A3 radioligand binding, percentage inhibition (Human Melanocortin (MC3); [125I]-NDP-αMSH): − (“−” indicates less than 50% inhibition at 10 μM)
- A4 radioligand binding, percentage inhibition (Human Melanocortin (MC4); [125I]-NDP-αMSH): + (“+” indicates greater than 50% inhibition at 10 μM)
- A5 radioligand binding, percentage inhibition (Human melanocortin (MC5); [125I]-NDP-αMSH): + (“+” indicates greater than 50% inhibition at 10 μM)
- A6 radioligand binding, percentage inhibition ([1]; [125I]-S36057): + (“+” indicates greater than 50% inhibition at 10 μM)
- A7 radioligand binding, percentage inhibition (Human μ-opioid (MOP); [3H]-Naloxone): − (“−” indicates less than 50% inhibition at 10 μM)
- A8 radioligand binding, percentage inhibition (Human neurokinin (NK1); [125I]-Substance P): + (“+” indicates greater than 50% inhibition at 10 μM)
- A9 radioligand binding, percentage inhibition ([2]; [125I]-PYY): − (“−” indicates less than 50% inhibition at 10 μM)
- A10 radioligand binding, percentage inhibition (Human opioid (ORL1); [125I]-Nociceptin): − (“−” indicates less than 50% inhibition at 10 μM)
- A11 radioligand binding, percentage inhibition (Mouse urotensin (mUR2); [125I]-Urotensin II): − (“−” indicates less than 50% inhibition at 10 μM)

SMILES: NCCCC(=O)NC1C(OCc2ccccc2)OC(COCc2ccc(Cl)cc2)C(O)C1OCc1ccccc1 (stereo not shown) [compound 380]
- A1: inhibition of radioligand binding (Human δ-opioid (DOP); [3H]-Bremazocine, human DOP membranes): − (“−” indicates less than 50% inhibition at 10 μM)
- A2: inhibition of radioligand binding (Human κ-Opioid (KOP); [3H]-Diprenorphine, human KOP membranes): − (“−” indicates less than 50% inhibition at 10 μM)
- A3: inhibition of radioligand binding (Human Melanocortin (MC3); [125I]-NDP-αMSH, human MC3 membranes): − (“−” indicates less than 50% inhibition at 10 μM)
- A4: inhibition of radioligand binding (Human Melanocortin (MC4); [125I]-NDP-αMSH, human MC4 membranes): + (“+” indicates greater than 50% inhibition at 10 μM)
- A5: inhibition of radioligand binding (Human melanocortin (MC5); [125I]-NDP-αMSH, human MC5 membranes): − (“−” indicates less than 50% inhibition at 10 μM)
- A6: inhibition of radioligand binding ([1]; [125I]-S36057, human MCH1 membranes): − (“−” indicates less than 50% inhibition at 10 μM)
- A7: inhibition of radioligand binding (Human μ-opioid (MOP); [3H]-Naloxone, human MOP membranes): − (“−” indicates less than 50% inhibition at 10 μM)
- A8: inhibition of radioligand binding (Human neurokinin (NK1); [125I]-Substance P, human NK1 membranes): + (“+” indicates greater than 50% inhibition at 10 μM)
- A9: inhibition of radioligand binding ([2]; [125I]-PYY, human NPY-Y1 membranes): − (“−” indicates less than 50% inhibition at 10 μM)
- A10: inhibition of radioligand binding (Human opioid (ORL1); [125I]-Nociceptin, human ORL1 membranes): − (“−” indicates less than 50% inhibition at 10 μM)
- A11: inhibition of radioligand binding (Mouse urotensin (mUR2); [125I]-Urotensin II, mouse mUR2 membranes): − (“−” indicates less than 50% inhibition at 10 μM)

SMILES: COC[C@H]1OC(OCc2ccc(-c3ccccc3)cc2)[C@H](NC(=O)CCNC(=N)N)[C@@H](OCc2ccccc2)[C@@H]1O (stereo partly shown) [compound 7]
- A1 radioligand binding inhibition (Human δ-opioid (DOP); human δ-opioid (DOP) membranes): − (“−” indicates less than 50% inhibition at 10 μM)
- A2 radioligand binding inhibition (Human κ-Opioid (KOP); human κ-opioid (KOP) membranes): − (“−” indicates less than 50% inhibition at 10 μM)
- A3 radioligand binding inhibition (Human Melanocortin (MC3); human melanocortin MC3 membranes): − (“−” indicates less than 50% inhibition at 10 μM)
- A4 radioligand binding inhibition (Human Melanocortin (MC4); human melanocortin MC4 membranes): − (“−” indicates less than 50% inhibition at 10 μM)
- A5 radioligand binding inhibition (Human melanocortin (MC5); human melanocortin MC5 membranes): − (“−” indicates less than 50% inhibition at 10 μM)
- A6 radioligand binding inhibition ([1]; human MCH1 membranes): + (“+” indicates greater than 50% inhibition at 10 μM)
- A7 radioligand binding inhibition (Human μ-opioid (MOP); human μ-opioid (MOP) membranes): + (“+” indicates greater than 50% inhibition at 10 μM)
- A8 radioligand binding inhibition (Human neurokinin (NK1); human neurokinin NK1 membranes): + (“+” indicates greater than 50% inhibition at 10 μM)
- A9 radioligand binding inhibition ([2]; human NPY-Y1 membranes): − (“−” indicates less than 50% inhibition at 10 μM)
- A10 radioligand binding inhibition (Human opioid (ORL1); human ORL1 membranes): − (“−” indicates less than 50% inhibition at 10 μM)
- A11 radioligand binding inhibition (Mouse urotensin (mUR2); mouse urotensin mUR2 membranes): − (“−” indicates less than 50% inhibition at 10 μM)
